According to patent US6908930B2, “4-substituted 7-AZA-indolin-2-ones and their use as protein kinase inhibitors” (Sugen, Inc., priority 1999, dated 2005):
Where a name gives a salt, the structure may show the parent alone.

The compounds below were run against T1, human cdk2/cyclin A (Homo sapiens, UniProt P24941) (assay: Assay for inhibition of CDK2 (Scintillation Proximity Assay)). Conditions: read-out: cdk2SPA IC50.
T1 construct: made in house; host or cells: Sf9 (baculovirus)
Format: biochemical
Method: Using the following reagents, supplies, and method, the ability of compounds of the invention to assay for modulation of the in vitro kinase activity of human cdk2/cyclin A in a Scintillation Proximity Assay (SPA).
Activated cdk2/cyclin A enzyme complex is purified from Sf9 cells and stored at −80° C. in 200 μL aliquots. Human cdk2/cyclin A protein is expressed, activated, and purified from baculovirus infected sf9 cells as described previously. (J. Mol. Biol., 230:1317-1319 (1993)).
The substrate is a biotinylated peptide substrate (Debtide), which is a peptide biotin-X-[…] dissolved in dH2O at a concentration of 5 mg/mL and stored at −80° C. in 100 μL aliquots.
The Peptide/ATP mixture is prepared by mixing 9.979 mL dH2O with 0.00125 mL of cold 10 mM ATP, 0.010 mL of 5 mg/mL Debtide, and 0.010 mL of 10 μCi/mL γ^33P ATP.
A 2.5× kinase buffer is prepared by mixing 8.85 mL of dH2O with 0.625 mL of 1M Tris pH 7.4, 0.25 mL of 1M MgCl2, 0.25 mL of 10% NP40, and 0.025 mL of 1M DTT. Ten milliliters of kinase buffer mix is sufficient for about 4.5 assay plates.
Prepare solutions of inhibitors at 5× the desired final concentration in 5% DMSO. Add 10 μL to each well. For negative controls, add 10 μL 5% DMSO.
Dilute 5 μL of cdk2/cyclin A solution into 2.1 mL 2× kinase buffer (per plate) and add 20 μL enzyme per well. This can be added using a hand pipette or by using the Titertek Multidrop. […] For each freeze/thaw cycle, double the amount of enzyme used in the assay. Also, the enzyme should be thawed quickly (e.g., in the palm of one's hand) and be kept on ice prior to use in the assay. Add 10 μL of 0.5 M EDTA to the negative control wells.
To start kinase reaction, add 20 μL of peptide/ATP mixture using either a hand pipette or the Titertek Multidrop. Let sit on benchtop behind shield for one hour. No shaking is necessary and is not recommended when using Flexiplates (plates are not easy to add/remove from shaker).
Add 200 μL stop solution per well using either the Titertek Multidrop or hand pipette. Let stand at least 10 minutes. Spin plate approximately 2300 rpm for 3-5 minutes. Count plate on Trilux reader.

Row | IC50 [nM] | Compound
1 | 10 | Cc1nc[nH]c1C=C1C(=O)Nc2ncnc(N3CCN(C)CC3)c21 [Formula 11]
2 | > 10000 | Cc1cc(C(=O)NCCN2CCOCC2)[nH]c1C=C1C(=O)Nc2ncnc(Nc3ccc(F)c(Cl)c3)c21 [Formula 4, 5-[4-(3-CHLORO-4-FLUORO-PHENYLAMINO)-6-OXO-6,7-DIHYDRO-PYRROLO[2,3-D]PYRIMIDIN-5-YLIDENEMETHYL]-4-METHYL-1H-PYRROLE-2-CARBOXYLIC ACID (2-MORPHOLIN-4-YL-ETHYL)-AMIDE HYDROCHLORIDE]
3 | > 10000 | Cc1cc(C(=O)NCCN2CCOCC2)[nH]c1C=C1C(=O)Nc2nccc(Nc3ccc(F)c(Cl)c3)c21 [Formula 3, 5-[4-(3-CHLORO-4-FLUORO-PHENYLAMINO)-2-OXO-1,2-DIHYDRO-PYRROLO[2,3-B]PYRIDIN-3-YLIDENEMETHYL]-4-METHYL-1H-PYRROLE-2-CARBOXYLIC ACID (2-MORPHOLIN-4-YL-ETHYL)-AMIDE]
4 | 40 | Cc1nc[nH]c1C=C1C(=O)Nc2ncnc(N3CCOCC3)c21 [Formula 14]
5 | 2620 | Cc1nc[nH]c1C=C1C(=O)Nc2ncnc(Nc3ccc(F)c(Cl)c3)c21 [Formula 8]
